Laboratory results from patent US20230285292A1, “COMPOSITIONS AND METHODS OF USING A PLA2-RESPONSIVE DRUG DELIVERY SYSTEM” (THE TRUSTEES OF THE UNIVERSITY OF PENNSYLVANIA, priority 2020, published 2023).

Experiments:
[1] = system: chronic constriction of the sciatic nerve; settings: intrathecal, given 1 day after chronic constriction of the sciatic nerve, only under daily repeated dosing; cited from earlier work
[2] = system: load-induced OA knee joints; test: Single load-induced PTOA model, von Frey pain analysis; assay type: in vivo, mouse; settings: 6 N or 9 N loading
Excerpt: To induce mouse OA that is noninvasive and mimics post-traumatic OA in human patients, male mice (2 months old) were subjected mechanic loading at the right knees and sham loading at left knees. Briefly, under anesthesia, the right tibiae were positioned with the knee downward in deep flexion between custom-made cups and subjected to axial compressive loads with a peak force of 6 or 9 Newtons (N) with a 0.5 N preload force to maintain the limb in position between loading cycles. Cyclic loads were applied for 0.34 s with a rise and fall time each of 0.17 s and a baseline hold time of 10 s between cycles for 60 cycles. The uninjured left knees were used as controls. […] For DMM surgical OA model, the first injection was performed immediately after surgery. Injections were then repeated every 2 weeks for 2 or 4 months. In total, there are 4 injections for the 2 months group and 8 injections for 4 months group. For load-induced OA model, injections (i.a.) were performed immediately and at 48 hours after loading. […] The knee joint pain after DMM surgery or loading injury was evaluated in mice weekly before and after surgery using von Frey filaments as described previously(38). […] The threshold force required to elicit withdrawal of the paw (median 50% withdrawal) was determined five times on each hind paw with sequential measurements separated by at least 5 minutes.

[3] = system: load-induced OA knee joints; test: Single load-induced PTOA model, histology and TUNEL; assay type: in vivo, mouse; settings: 6 N or 9 N loading, two weeks
Excerpt: To induce mouse OA that is noninvasive and mimics post-traumatic OA in human patients, male mice (2 months old) were subjected mechanic loading at the right knees and sham loading at left knees. Briefly, under anesthesia, the right tibiae were positioned with the knee downward in deep flexion between custom-made cups and subjected to axial compressive loads with a peak force of 6 or 9 Newtons (N) with a 0.5 N preload force to maintain the limb in position between loading cycles. Cyclic loads were applied for 0.34 s with a rise and fall time each of 0.17 s and a baseline hold time of 10 s between cycles for 60 cycles. The uninjured left knees were used as controls. […] For DMM surgical OA model, the first injection was performed immediately after surgery. Injections were then repeated every 2 weeks for 2 or 4 months. In total, there are 4 injections for the 2 months group and 8 injections for 4 months group. For load-induced OA model, injections (i.a.) were performed immediately and at 48 hours after loading. There are 2 injections in total for each mouse in this model. […] Cartilage injury length was measured in Safranin 0/Fast green stained paraffin sections. […] According to these histological changes, it is possible to identify the demarcation between the normal and injured cartilage tissue, and the length of the cartilage lesion range was measured. […]

[4] = system: DMM-induced OA knee joints; test: DMM surgery-induced OA model, histology and microCT; assay type: in vivo, mouse; settings: for morphology and structure of articular cartilage / cartilage degeneration: intra-articular injection once every two weeks starting immediately after DMM, 2 and 4 months
Excerpt: To induce mouse OA that mimics chronic OA in human patients, male mice at 3 months of age were subjected to DMM surgery at right knees and sham surgery at left knees. Briefly, in DMM surgery, the joint capsule was opened immediately after anesthesia and the medial meniscotibial ligament was cut to destabilize the meniscus without damaging other tissues. In Sham surgery, the joint capsule was opened in the same fashion but without any further damage. […] For DMM surgical OA model, the first injection was performed immediately after surgery. Injections were then repeated every 2 weeks for 2 or 4 months. In total, there are 4 injections for the 2 months group and 8 injections for 4 months group. For load-induced OA model, injections (i.a.) were performed immediately and at 48 hours after loading. There are 2 injections in total for each mouse in this model. After euthanasia, mouse knee joints were harvested and fixed in 4% paraformaldehyde overnight followed by decalcification in 0.5 M EDTA (pH 7.4) for 4 weeks prior to paraffin embedding. A serial of 6 μm-thick sagittal sections (about 100) were cut across the entire medial compartment of the joint until ACL junction. […] The final measurement is an average of these three sections. We defined uncalcified cartilage as the area from articular surface to the tide mark and calcified cartilage as the area from tide mark to cement line. The method to measure Mankin Score was described previously(37). Briefly, two sections within every consecutive six sections in the entire section set for each knee were stained with Safranin 0/Fast green and scored by two blinded observers. Each knee received a single score representing the maximal score of its sections. Synovitis score grading was carried out in 6-μm paraffin sections of sagittal mouse knee sections stained with H&E. The following basic morphological parameters of synovitis were included: (i) hyperplasia/enlargement of synovial lining layer, (ii) degree of inflammatory infiltration and (iii) activation of resident cells/synovial stroma, including fibroblasts, endothelial cells, histiocytes, macrophages, and multinucleated giant cells. All parameters are graded from 0 (absent), 1 (slight), 2 (moderate) to 3 (strong positive). The distal femur of mouse knee joints was scanned at a 6-μm isotropic voxel size with a microCT 35 scanner (Scanco Medical AG, Brüttisellen, Switzerland). All images were smoothened by a Gaussian filter (sigma=1.2, support=2.0). Measurement of SBP thickness was described previously(39). […] The region of interest (ROI) was circled and the average SBP thickness within ROI is calculated by average grey value/255*max scale bar value. […]

[5] = Toxicity in mice after 2-month serial intra-articular injections; assay type: in vivo, mouse
Excerpt: After 2 months treatment for DMM mice, some major organs (kidney, liver, lung, heart, and spleen) and blood were collected. Tissue sections were stained with hematoxylin and eosin (H&E) to assess the effects of different treatment on mouse organ morphology.

[6] = system: DMM-induced OA knee joints; test: DMM surgery-induced OA model, von Frey pain analysis; assay type: in vivo, mouse; settings: DMM knees; from 2 weeks post-surgery throughout experimental period
Excerpt: To induce mouse OA that mimics chronic OA in human patients, male mice at 3 months of age were subjected to DMM surgery at right knees and sham surgery at left knees. Briefly, in DMM surgery, the joint capsule was opened immediately after anesthesia and the medial meniscotibial ligament was cut to destabilize the meniscus without damaging other tissues. In Sham surgery, the joint capsule was opened in the same fashion but without any further damage. […] For DMM surgical OA model, the first injection was performed immediately after surgery. Injections were then repeated every 2 weeks for 2 or 4 months. In total, there are 4 injections for the 2 months group and 8 injections for 4 months group. For load-induced OA model, injections (i.a.) were performed immediately and at 48 hours after loading. There are 2 injections in total for each mouse in this model. The knee joint pain after DMM surgery or loading injury was evaluated in mice weekly before and after surgery using von Frey filaments as described previously(38). An individual mouse was placed on a wire-mesh platform (Excellent Technology Co.) under a 4×3×7 cm cage to restrict their move. […] The threshold force required to elicit withdrawal of the paw (median 50% withdrawal) was determined five times on each hind paw with sequential measurements separated by at least 5 minutes.

Row | Structure (SMILES) | behavioral sensitivity [1] | pain threshold / OA pain (von Frey) [2] | length of cartilage injury [3] | synovitis scores [3] | increase of SBP thickness at femoral medial site compared to sham joints ([4]; 4 months after DMM surgery) | increase in synovitis score compared with sham knees ([4]; DMM knees, 2-month treatment) | morphology and structure of articular cartilage / cartilage degeneration [4] | morphology and structure of articular cartilage / cartilage degeneration ([4]; listed as free sPLA2i) | blood parameters (hematology, renal and liver function, serum electrolytes) ([5]; 2-month serial injections) | histopathology of liver, spleen, kidney, lung, heart and knee joint ([5]; two months after serial intra-articular injections) | mechanical threshold / OA pain (von Frey) [6]
1 | CCCCC/C=C\C/C=C\C/C=C\C/C=C\CCCC(=O)C(F)(F)F [AACOCF3] | reduces behavioral sensitivity | – | – | – | – | – | – | – | – | – | –
2 | CCCCCCCCCCCCCCCCSCC(COP(=O)([O-])OCC[N+](C)(C)C)NC(=O)CCCCCCCCCCCCCCC (centres unmarked) [sPLA2i, 1-Palmitylthio-2-palmitoylamido-1,2-dideoxy-sn-glycero-3-phosphorylcholine] | – | experienced OA pain | significant damage areas | significant synovitis | 1.31 fold | more than 10 fold | did not have a protective effect | not observed | no significant difference | did not observe any histopathological abnormalities | did not alter the OA pain
